Where a SMILES comes first, the peptide text is derived from it. [ ]: non-standard residue; d: D form. NMeY = CN[C@@H](Cc1ccc(O)cc1)C(=O)O; dNMeF = CN[C@H](Cc1ccccc1)C(=O)O; Sar = CNCC(=O)O
What was measured:
Vero = experiment: Cytotoxicity against african green monkey Vero cells; type: cell-based; settings: Chlorocebus sabaeus
Plasmodium falciparum = experiment: Antimalarial activity against Plasmodium falciparum K1 by [3H]hypoxanthine uptake; type: functional, organism-based

| IC50 (Plasmodium falciparum) [nM] | SMILES | IC50 (Vero) [nM] |
| --- | --- | --- |
| 5350 | CC[C@H](C)[C@@H]1NC(=O)[C@H](Cc2ccc(O)cc2)N(C)C(=O)[C@H](Cc2ccccc2)NC(=O)CN(C)C(=O)[C@@H]2CCCN2C(=O)[C@@H](Cc2ccccc2)N(C)C(=O)[C@H](CC(C)C)NC1=O [CORDYHEPTAPEPTIDE A] (cyclo(F[NMeY]IL[dNMeF]P[Sar])) | > 56900 |
| 6 | C[C@H]1[C@@H](O)O[C@@H]2O[C@@]3(C)CC[C@H]4[C@H](C)CC[C@@H]1[C@@]24OO3 [ARTENIMOL] |  |
|  | Cc1c2ccncc2c(C)c2c1[nH]c1ccccc12 [ELLIPTECINE] | 2440 |
